Data reported in patent US20260138969A1 (Korea Research Institute of Chemical Technology, priority 2023, published 2026).

target: T1, recombinant human ASK1 protein (Homo sapiens, UniProt Q99683); test: Evaluation of ASK1 inhibition activity ([gamma-33P]-ATP, scintillation counting); type: biochemical; conditions: not given
T1 sequence (Q99683 1-1374): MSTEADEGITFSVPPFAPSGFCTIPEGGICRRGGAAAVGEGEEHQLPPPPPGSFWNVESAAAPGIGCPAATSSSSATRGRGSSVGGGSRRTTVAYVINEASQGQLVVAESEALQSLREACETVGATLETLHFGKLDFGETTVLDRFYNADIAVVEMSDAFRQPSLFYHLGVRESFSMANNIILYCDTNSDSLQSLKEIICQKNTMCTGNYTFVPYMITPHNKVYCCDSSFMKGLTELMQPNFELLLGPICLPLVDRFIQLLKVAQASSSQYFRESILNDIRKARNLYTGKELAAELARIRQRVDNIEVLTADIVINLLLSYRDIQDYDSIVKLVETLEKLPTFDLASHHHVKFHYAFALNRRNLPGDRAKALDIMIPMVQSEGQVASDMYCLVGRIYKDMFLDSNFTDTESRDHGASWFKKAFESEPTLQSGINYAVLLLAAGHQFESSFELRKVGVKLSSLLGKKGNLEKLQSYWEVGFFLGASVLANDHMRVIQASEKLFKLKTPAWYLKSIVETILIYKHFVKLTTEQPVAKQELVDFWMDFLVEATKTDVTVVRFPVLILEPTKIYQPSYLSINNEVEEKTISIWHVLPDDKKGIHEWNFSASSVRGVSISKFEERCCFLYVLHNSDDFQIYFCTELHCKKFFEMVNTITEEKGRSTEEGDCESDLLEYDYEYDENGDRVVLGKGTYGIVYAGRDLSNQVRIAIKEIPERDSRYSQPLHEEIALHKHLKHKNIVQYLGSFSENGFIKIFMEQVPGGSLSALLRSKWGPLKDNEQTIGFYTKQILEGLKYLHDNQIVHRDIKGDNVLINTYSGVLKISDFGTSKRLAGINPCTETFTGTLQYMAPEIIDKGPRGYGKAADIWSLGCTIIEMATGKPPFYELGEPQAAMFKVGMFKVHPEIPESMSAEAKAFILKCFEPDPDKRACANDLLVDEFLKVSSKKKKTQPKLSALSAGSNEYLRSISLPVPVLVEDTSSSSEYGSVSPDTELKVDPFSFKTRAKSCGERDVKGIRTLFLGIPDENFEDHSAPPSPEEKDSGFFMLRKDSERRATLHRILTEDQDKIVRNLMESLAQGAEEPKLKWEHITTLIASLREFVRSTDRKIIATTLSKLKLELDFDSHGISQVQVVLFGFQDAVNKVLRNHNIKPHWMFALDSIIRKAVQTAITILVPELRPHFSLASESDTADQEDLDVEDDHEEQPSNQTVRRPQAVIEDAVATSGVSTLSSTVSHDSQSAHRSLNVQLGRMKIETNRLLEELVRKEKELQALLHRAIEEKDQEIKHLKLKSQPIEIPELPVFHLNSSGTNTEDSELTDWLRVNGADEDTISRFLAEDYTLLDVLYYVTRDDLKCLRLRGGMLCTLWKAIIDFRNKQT
Protocol: The recombinant human ASK1 protein was initiated by adding a mixture of Mg/ATP to the reaction solution (8 mM MOPS PH 7.0, 0.2 mM EDTA, 0.33 mg/mL myelin basic protein, 10 mM Mg Acetate and [gamma-33P]-ATP), and the reaction was terminated by adding 0.5% phosphoric acid after 40 min at room temperature.

Row | IC50 [nM] | SMILES
1 | 235 | Cc1cc(F)c(C(=O)Nc2cccc(-n3nnc4ccccc43)n2)cc1-n1cnc(C2CC2)c1 [Example 1, N-(6-(1H-benzo[d][1,2,3]triazole-1-yl)pyridine-2-yl)-5-(4-cyclopropyl-1H-imidazole-1-yl)-2-fluoro-4-methylbenzamide]
2 | 198 | Cc1cc(F)c(C(=O)Nc2cccc(-n3nnc4c3CCCCCC4)n2)cc1-n1cnc(C2CC2)c1 [Example 5, 5-(4-cyclopropyl-1H-imidazole-1-yl)-2-fluoro-N-(6-(4,5,6,7,8,9-hexahydro-1H-cycloocta[d][1,2,3]triazole-1-yl)pyridine-2-yl)-4-methylbenzamide]

same assay, conditions: 0.5 uM; activity of group without compound set at 100%; read-out: Remaining kinase activity (%) at 0.5 uM

Row | SMILES | remaining activity at 0.5 µM [%]
3 | COc1cc(C)c(-n2cnc(C3CC3)c2)cc1C(=O)Nc1cccc(-n2nnc3c2CCC3)n1 [Example 8, 5-(4-cyclopropyl-1H-imidazol-1-yl)-N-(6-(5,6-dihydrocyclopenta[d][1,2,3]triazol-1 (4H)-yl)pyridin-2-yl)-2-methoxy-4-methylbenzamide] | 0
4 | CCOc1cc(C)c(-n2cnc(C3CC3)c2)cc1C(=O)Nc1cccc(-n2nnc3c2CCC3)n1 [Example 10, 5-(4-cyclopropyl-1H-imidazol-1-yl)-N-(6-(5,6-dihydrocyclopenta[d][1,2,3]triazol-1 (4H)-yl)pyridin-2-yl)-2-ethoxy-4-methylbenzamide] | 14
5 | Cc1cc(OC(F)F)c(C(=O)Nc2cccc(-n3nnc4c3CCC4)n2)cc1-n1cnc(C2CC2)c1 [Example 14, 5-(4-cyclopropyl-1H-imidazol-1-yl)-2-(difluoromethoxy)-N-(6-(5,6-dihydrocyclopenta[d][1,2,3]triazol-1 (4H)-yl)pyridin-2-yl)-4-methylbenzamide] | 1
6 | CCOc1ccc(-n2cnc(C3CC3)c2)cc1C(=O)Nc1cccc(-n2nnc3c2CCC3)n1 [Example 16, 5-(4-cyclopropyl-1H-imidazol-1-yl)-N-(6-(5,6-dihydrocyclopenta[d][1,2,3]triazol-1 (4H)-yl)pyridin-2-yl)-2-ethoxybenzamide] | 11
7 | CCOc1ccc(-n2cnc(C3CC3)c2)cc1C(=O)Nc1cccc(-n2nnc3c2CCCC3)n1 [Example 17, 5-(4-cyclopropyl-1H-imidazol-1-yl)-2-ethoxy-N-(6-(4,5,6,7-tetrahydro-1H-benzo[d][1,2,3]triazol-1-yl)pyridin-2-yl)benzamide] | 2
8 | CC(C)Oc1ccc(-n2cnc(C3CC3)c2)cc1C(=O)Nc1cccc(-n2nnc3c2CCC3)n1 [Example 18, 5-(4-cyclopropyl-1H-imidazol-1-yl)-N-(6-(5,6-dihydrocyclopenta[d][1,2,3]triazol-1 (4H)-yl)pyridin-2-yl)-2-isopropoxybenzamide] | 11
9 | O=C(Nc1cccc(-n2nnc3c2CCC3)n1)c1cc(-n2cnc(C3CC3)c2)ccc1OCC(F)(F)F [Example 20, 5-(4-cyclopropyl-1H-imidazol-1-yl)-N-(6-(5,6-dihydrocyclopenta[d][1,2,3]triazol-1 (4H)-yl)pyridin-2-yl)-2-(2,2,2-trifluoroethoxy)benzamide] | 3
10 | O=C(Nc1cccc(-n2nnc3c2CCC3)n1)c1cc(-n2cnc(C3CC3)c2)ccc1OC1CC1 [Example 22, 2-cyclopropoxy-5-(4-cyclopropyl-1H-imidazol-1-yl)-N-(6-(5,6-dihydrocyclopenta[d][1,2,3]triazol-1 (4H)-yl)pyridin-2-yl)benzamide] | 24
11 | O=C(Nc1cccc(-n2nnc3c2CCCC3)n1)c1cc(-n2cnc(C3CC3)c2)ccc1OC(F)(F)F [Example 25, 5-(4-cyclopropyl-1H-imidazol-1-yl)-N-(6-(4,5,6,7-tetrahydro-1H-benzo[d][1,2,3]triazol-1-yl)pyridin-2-yl)-2-(trifluoromethoxy)benzamide] | 14

The remaining lines, values ahead:

Row | remaining activity at 0.5 µM [%] | SMILES
12 | 14 | Cc1cc(F)c(C(=O)Nc2cccc(-n3nnc4ccccc43)n2)cc1-n1cnc(C2CC2)c1 [Example 1, N-(6-(1H-benzo[d][1,2,3]triazole-1-yl)pyridine-2-yl)-5-(4-cyclopropyl-1H-imidazole-1-yl)-2-fluoro-4-methylbenzamide]
13 | 0 | COc1ccc(-n2cnc(C3CC3)c2)cc1C(=O)Nc1cccc(-n2nnc3c2CCC3)n1 [Example 6, 5-(4-cyclopropyl-1H-imidazol-1-yl)-N-(6-(5,6-dihydrocyclopenta[d][1,2,3]triazol-1 (4H)-yl)pyridin-2-yl)-2-methoxybenzamide]
14 | 2 | COc1ccc(-n2cnc(C3CC3)c2)cc1C(=O)Nc1cccc(-n2nnc3c2CCCC3)n1 [Example 7, 5-(4-cyclopropyl-1H-imidazol-1-yl)-2-methoxy-N-(6-(4,5,6,7-tetrahydro-1H-benzo[d][1,2,3]triazol-1-yl)pyridin-2-yl)benzamide]
15 | 0 | COc1cc(C)c(-n2cnc(C3CC3)c2)cc1C(=O)Nc1cccc(-n2nnc3c2CCCC3)n1 [Example 9, 5-(4-cyclopropyl-1H-imidazol-1-yl)-2-methoxy-4-methyl-N-(6-(4,5,6,7-tetrahydro-1H-benzo[d][1,2,3]triazol-1-yl)pyridin-2-yl)benzamide]
16 | 29 | CCOc1cc(C)c(-n2cnc(C3CC3)c2)cc1C(=O)Nc1cccc(-n2nnc3c2CCCC3)n1 [Example 11, 5-(4-cyclopropyl-1H-imidazol-1-yl)-2-ethoxy-4-methyl-N-(6-(4,5,6,7-tetrahydro-1H-benzo[d][1,2,3]triazol-1-yl)pyridin-2-yl)benzamide]
17 | 0 | Cc1cc(OC(C)C)c(C(=O)Nc2cccc(-n3nnc4c3CCC4)n2)cc1-n1cnc(C2CC2)c1 [Example 12, 5-(4-cyclopropyl-1H-imidazol-1-yl)-N-(6-(5,6-dihydrocyclopenta[d][1,2,3]triazol-1 (4H)-yl)pyridin-2-yl)-2-isopropoxy-4-methylbenzamide]
18 | 9 | Cc1cc(OC(C)C)c(C(=O)Nc2cccc(-n3nnc4c3CCCC4)n2)cc1-n1cnc(C2CC2)c1 [Example 13, 5-(4-cyclopropyl-1H-imidazol-1-yl)-2-isopropoxy-4-methyl-N-(6-(4,5,6,7-tetrahydro-1H-benzo[d][1,2,3]triazol-1-yl)pyridin-2-yl)benzamide]
19 | 8 | Cc1cc(OC(F)F)c(C(=O)Nc2cccc(-n3nnc4c3CCCC4)n2)cc1-n1cnc(C2CC2)c1 [Example 15, 5-(4-cyclopropyl-1H-imidazol-1-yl)-2-(difluoromethoxy)-4-methyl-N-(6-(4,5,6,7-tetrahydro-1H-benzo[d][1,2,3]triazol-1-yl)pyridin-2-yl)benzamide]
20 | 9 | CC(C)Oc1ccc(-n2cnc(C3CC3)c2)cc1C(=O)Nc1cccc(-n2nnc3c2CCCC3)n1 [Example 19, 5-(4-cyclopropyl-1H-imidazol-1-yl)-2-isopropoxy-N-(6-(4,5,6,7-tetrahydro-1H-benzo[d][1,2,3]triazol-1-yl)pyridin-2-yl)benzamide]
21 | 16 | O=C(Nc1cccc(-n2nnc3c2CCCC3)n1)c1cc(-n2cnc(C3CC3)c2)ccc1OCC(F)(F)F [Example 21, 5-(4-cyclopropyl-1H-imidazol-1-yl)-N-(6-(4,5,6,7-tetrahydro-1H-benzo[d][1,2,3]triazol-1-yl)pyridin-2-yl)-2-(2,2,2-trifluoroethoxy)benzamide]
22 | 38 | O=C(Nc1cccc(-n2nnc3c2CCCC3)n1)c1cc(-n2cnc(C3CC3)c2)ccc1OC1CC1 [Example 23, 2-cyclopropoxy-5-(4-cyclopropyl-1H-imidazol-1-yl)-N-(6-(4,5,6,7-tetrahydro-1H-benzo[d][1,2,3]triazol-1-yl)pyridin-2-yl)benzamide]
23 | 5 | O=C(Nc1cccc(-n2nnc3c2CCC3)n1)c1cc(-n2cnc(C3CC3)c2)ccc1OC(F)(F)F [Example 24, 5-(4-cyclopropyl-1H-imidazol-1-yl)-N-(6-(5,6-dihydrocyclopenta[d][1,2,3]triazol-1 (4H)-yl)pyridin-2-yl)-2-(trifluoromethoxy)benzamide]
